# Laboratory results taken from patent publication US9540691B2, “Assays and methods for selecting a treatment regimen for a subject with depression” (THE GENERAL HOSPITAL CORPORATION, priority 2011, dated 2017).
# Read-outs that look alike come from different tables or passages of the source.
# System: remitters with MDD at end of double-blind phase
# Details: for Relapsers (HAM-D-17 > 15) during 12-month maintenance phase: 15 mg/day 6(S)-5-MTHF as an adjuvant
# Description: During each visit, patients are administered the HAM-D-28, the CGI, the QIDS-SR, the SAFTEE-SI, the MGH-CPFQ, and the MGH-SFQ (See, e.g., Table 10 below). […] Subjects are also allowed to change their antidepressant during the course of the follow-up, if deemed appropriate. For patients who refuse the 12 months of free follow-up care, a referral to a psychiatrist is offered.
smiles,measurement,setting,value
"CN1c2c(nc(N)[nH]c2=O)NC[C@@H]1CNc1ccc(C(=O)N[C@@H](CCC(=O)O)C(=O)O)cc1 [6(S)-5-MTHF, 6(S)-5-methyltetrahydrofolate]",Relapsers (HAM-D-17 > 15) during 12-month maintenance phase,Trial 1 remitters (2 entering),0
same,Relapsers (HAM-D-17 > 15) during 12-month maintenance phase,Trial 2 remitters (9 entering),0
same,relapse during 12-month maintenance phase (in words),"remitters at end of double-blind phase, adjunctive 15 mg/day",did not have a relapse
